Results: patent publication US8399494B2, “2,5-disubstituted phenyl carboxamide orexin receptor antagonists” (Merck Sharp & Dohme Corp., priority 2008, dated 2013)

Target: T1, OX2R (Homo sapiens, UniProt O43614)
T1 construct: expressed in transfected cells; host or cells: CHO cells (membranes)
T1 sequence (O43614 1-444): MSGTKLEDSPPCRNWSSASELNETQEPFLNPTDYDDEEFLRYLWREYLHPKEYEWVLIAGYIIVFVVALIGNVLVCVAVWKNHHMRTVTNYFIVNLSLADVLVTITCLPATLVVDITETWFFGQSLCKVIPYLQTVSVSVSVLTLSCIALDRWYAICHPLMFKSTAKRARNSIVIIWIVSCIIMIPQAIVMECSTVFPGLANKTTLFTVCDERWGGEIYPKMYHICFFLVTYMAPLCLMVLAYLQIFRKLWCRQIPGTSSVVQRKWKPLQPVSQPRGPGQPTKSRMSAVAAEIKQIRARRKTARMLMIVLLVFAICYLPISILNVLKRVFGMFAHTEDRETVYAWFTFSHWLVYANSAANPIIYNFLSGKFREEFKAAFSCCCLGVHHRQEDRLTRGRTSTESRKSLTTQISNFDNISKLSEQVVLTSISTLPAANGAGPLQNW
Assay: radioligand binding assay, OX2 receptor
Details: membranes prepared from CHO cells expressing OX2 receptor

Row | SMILES | Ki
1 | COc1ccc(CNC(=O)c2cc(-c3cc(Cl)cc(Cl)c3)ccc2-c2cccnc2)cc1OC [1-6, 3′,5′-dichloro-N-(3,4-dimethoxybenzyl)-4-pyridin-3-ylbiphenyl-3-carboxamide] | 0.12 nM
2 | CCc1nc(CNC(=O)c2cc(-c3cncc(C)c3)ccc2-c2cnn(C)c2)ccc1OC [1-17, N-[(6-ethyl-5-methoxypyridin-2-yl)methyl]-2-(1-methyl-1H-pyrazol-4-yl)-5-(5-methylpyridin-3-yl)benzamide] | 1.3 nM
